Results: US20230146455A1, “TREATMENT OF INFLAMMATORY DISEASES WITH PEPTIDES AND PHARMACEUTICAL COMPOSITIONS” (Yuyu Pharma, Inc., priority 2020, published 2023)
Several values for one entry are separate records, joined by “and”; a condition that tells them apart may be missing. Equal entries are not always repeated. Where a SMILES comes first, the peptide text is derived from it. [ ]: non-standard residue; d: D form. Hyp = O=C(O)[C@@H]1C[C@@H](O)CN1

Experiments:
TNF-alpha = experiment: Example 9 Luminex, LPS hPBMCs: TNF-alpha; assay type: cell-based, human
Procedure: (§1) Treatment Human PBMCs were pretreated with YY-101, YDE-011 and YDE-043 or reference compound; Xiidra® at various concentration (ranging from 1 nM to 100 uM) for 2 h before stimulation. An equal volume of 0.5% DMSO was used as a vehicle control. Then, the cells were treated with LPS at 5 ug/ml. The supernatants from treated cells were harvested at 24 h and placed in a 96 well for Luminex cytokine & chemokine profiling using a Luminex 200 multiplex assay (Luminex; R&D system, USA).
(§2) The main study arm with triplicate wells per group in a 24-well plate: • 1. Blank • 2. PBMC: 0.5% DMSO • 3. PBMC+LPS (5 ug/ml) • 4. PBMC+YY-101 100 uM • 5. PBMC+YY-101 10 uM • 6. PBMC+YY-101 1 uM • 7. PBMC+YY-101 0.1 uM • 8. PBMC+YY-101 0.01 uM • 9. PBMC+LPS (5 ug/ml)+Xiidra®100 uM • 10. PBMC+LPS (5 ug/ml)+Xiidra® 10 uM • 11. PBMC+LPS (5 ug/ml)+Xiidra® 1 uM • 12. PBMC+LPS (5 ug/ml)+Xiidra®0.1 uM • 13. PBMC+LPS (5 ug/ml)+Xiidra®0.01 uM • 14. PBMC+LPS (5 ug/ml)+Xiidra®0.001 uM • 15. PBMC+LPS (5 ug/ml)+YY-101 100 uM • 16. PBMC+LPS (5 ug/ml)+YY-101 10 uM • 17. PBMC+LPS (5 ug/ml)+YY-101 1 uM • 18. PBMC+LPS (5 ug/ml)+YY-101 0.1 uM • 19. PBMC+LPS (5 ug/ml)+YY-101 0.01 uM • 20. PBMC+LPS (5 ug/ml)+YY-101 0.001 uM • 21. PBMC+LPS (5 ug/ml)+YDE-011 100 uM • 22. PBMC+LPS (5 ug/ml)+YDE-011 10 uM • 23. PBMC+LPS (5 ug/ml)+YDE-011 1 uM • 24. PBMC+LPS (5 ug/ml)+YDE-011 0.1 uM • 25. PBMC+LPS (5 ug/ml)+YDE-011 0.01 uM • 26. PBMC+LPS (5 ug/ml)+YDE-011 0.001 uM • 27. PBMC+LPS (5 ug/ml)+YDE-043 100 uM • 28. PBMC+LPS (5 ug/ml)+YDE-043 10 uM • 29. PBMC+LPS (5 ug/ml)+YDE-043 1 uM • 30. PBMC+LPS (5 ug/ml)+YDE-043 0.1 uM • 31. PBMC+LPS (5 ug/ml)+YDE-043 0.01 uM • 32. PBMC+LPS (5 ug/ml)+YDE-043 0.001 uM
(§3) Multiplex assay was used to measure 30 cytokines and chemokines. The 1:2, 1:10 and 1:200 diluted cell supernatant and serial dilution of the standard were dispensed into a 96 well plate at 50 ul/well. Then, the pre-mixed cocktail of antibody-coated magnetic beads was dispensed at 50 ul/well and incubated at room temperature for 2 h in a horizontal orbital microplate shaker at 800±500 rpm. The beads were washed using a magnetic device to prevent loss. The biotin-antibody was dispensed in 50 ul of each well and incubated at room temperature for 1 h in a shaker at 800±500 rpm. After washing, streptavidin-PE was added at 50 ul/well and incubated at room temperature for 30 min in a shaker under the same conditions. Finally, after washing, wash buffer (100 ul/well) was added to the plate and incubated in a shaker for 2 min. The Luminex™ 200 setting were set according to the manufacturer's protocol. The data was calculated with a standard five-parameter logistic nonlinear regression analysis of the data (xPonent software 4.2, USA). The levels of cytokine/chemokine are normalized to the live cell counts (1×10^5 cells/mL) and presented as concentrations per mL (pg/mL or ng/mL).

CCL4/MIP-1 beta = experiment: Example 9 Luminex, LPS hPBMCs: CCL4/MIP-1 beta; assay type: cell-based, human; conditions: PBMC + LPS(5 ug/ml); for MFI (Bead name: CCL4/MIP-1 beta): dilution 10
Procedure: as §1, §2, §3

[1] = PBMC + LPS(5 ug/ml) + test article 0.001 uM, Mean
[2] = PBMC + LPS(5 ug/ml) + test article 0.001 uM, individual replicates (1st, 2nd, 3rd)
[3] = PBMC + LPS(5 ug/ml) + test article 0.01 uM, Mean
[4] = PBMC + LPS(5 ug/ml) + test article 0.01 uM, individual replicates (1st, 2nd, 3rd)
[5] = PBMC + LPS(5 ug/ml) + test article 0.1 uM, Mean
[6] = PBMC + LPS(5 ug/ml) + test article 0.1 uM, individual replicates (1st, 2nd, 3rd)
[7] = PBMC + LPS(5 ug/ml) + test article 1 uM, Mean
[8] = PBMC + LPS(5 ug/ml) + test article 1 uM, individual replicates (1st, 2nd, 3rd)
[9] = PBMC + LPS(5 ug/ml) + test article 10 uM, Mean
[10] = PBMC + LPS(5 ug/ml) + test article 10 uM, individual replicates (1st, 2nd, 3rd)
[11] = PBMC + LPS(5 ug/ml) + test article 100 uM, Mean
[12] = PBMC + LPS(5 ug/ml) + test article 100 uM, individual replicates (1st, 2nd, 3rd)
[13] = test article 0.001 uM, single replicates
[14] = test article 0.01 uM, single replicates
[15] = test article 0.1 uM, single replicates
[16] = test article 1 uM, single replicates
[17] = test article 10 uM, single replicates
[18] = test article 100 uM, single replicates

## CC(C)C[C@H](NC(=O)CNC(=O)[C@H](CC(C)C)NC(=O)[C@H](CCC(N)=O)NC(=O)CNC(=O)[C@@H]1C[C@@H](O)CN1)C(=O)N[C@@H](C)C(=O)NCC(=O)N1CCC[C@H]1C(=O)N[C@@H](CCCCN)C(=O)O [YDE-011] (H-[Hyp]GQLGLAGPK-OH)
TNF-alpha; [1]
  TNF-alpha Concentration: 1257.3 pg/mL
  TNF-alpha conc/live cell: 237.4 pg/10^5
TNF-alpha; [2]
  TNF-alpha Concentration: 1245.3 pg/mL and 1240.9 pg/mL and 1285.6 pg/mL
  TNF-alpha conc/live cell: 276.7 pg/10^5 and 213.9 pg/10^5 and 221.7 pg/10^5
TNF-alpha; [3]
  TNF-alpha Concentration: 1293.5 pg/mL
  TNF-alpha conc/live cell: 222.4 pg/10^5
TNF-alpha; [4]
  TNF-alpha Concentration: 1285.6 pg/ml (2×) and 1309.5 pg/ml
  TNF-alpha conc/live cell: 207.4 pg/10^5 and 252.1 pg/10^5 and 207.9 pg/10^5
TNF-alpha; [5]
  TNF-alpha Concentration: 1269.7 pg/mL
  TNF-alpha conc/live cell: 223.0 pg/10^5
TNF-alpha; [6]
  TNF-alpha Concentration: 1273.7 pg/mL and 1276.6 pg/mL and 1258.7 pg/mL
  TNF-alpha conc/live cell: 193.0 pg/10^5 and 255.3 pg/10^5 and 220.8 pg/10^5
TNF-alpha; [7]
  TNF-alpha Concentration: 1256.8 pg/mL
  TNF-alpha conc/live cell: 250.5 pg/10^5
TNF-alpha; [8]
  TNF-alpha Concentration: 1282.6 pg/mL and 1208.1 pg/mL and 1279.6 pg/mL
  TNF-alpha conc/live cell: 233.2 pg/10^5 and 251.7 pg/10^5 and 266.6 pg/10^5
TNF-alpha; [9]
  TNF-alpha Concentration: 1330.4 pg/mL
  TNF-alpha conc/live cell: 253.3 pg/10^5
TNF-alpha; [10]
  TNF-alpha Concentration: 1399.2 pg/mL and 1255.8 pg/mL and 1336.4 pg/mL
  TNF-alpha conc/live cell: 259.1 pg/10^5 and 216.5 pg/10^5 and 284.3 pg/10^5
TNF-alpha; [11]
  TNF-alpha Concentration: 968.4 pg/mL
  TNF-alpha conc/live cell: 159.6 pg/10^5
TNF-alpha; [12]
  TNF-alpha Concentration: 985.6 pg/mL and 960.5 pg/mL and 959.0 pg/mL
  TNF-alpha conc/live cell: 161.6 pg/10^5 and 157.5 pg/10^5 and 159.8 pg/10^5
CCL4/MIP-1 beta; test article 0.001 uM, Mean
  Concentration (CCL4/MIP-1 beta): 7251.7 pg/mL
  conc/live cell (CCL4/MIP-1 beta): 1370.9 pg/10^5
  MFI (Bead name: CCL4/MIP-1 beta): 157.3
CCL4/MIP-1 beta; [13]
  MFI (Bead name: CCL4/MIP-1 beta): 158.0 (2×) and 156.0
  Concentration (CCL4/MIP-1 beta): 7267.3 pg/ml (2×) and 7220.3 pg/ml
  conc/live cell (CCL4/MIP-1 beta): 1615.0 pg/10^5 and 1244.9 pg/10^5 and 1253.0 pg/10^5
CCL4/MIP-1 beta; test article 0.01 uM, Mean
  Concentration (CCL4/MIP-1 beta): 7395.1 pg/mL
  conc/live cell (CCL4/MIP-1 beta): 1270.9 pg/10^5
  MFI (Bead name: CCL4/MIP-1 beta): 163.5
CCL4/MIP-1 beta; [14]
  MFI (Bead name: CCL4/MIP-1 beta): 164.0 and 159.0 and 167.5
  Concentration (CCL4/MIP-1 beta): 7407.0 pg/mL and 7290.8 pg/mL and 7487.6 pg/mL
  conc/live cell (CCL4/MIP-1 beta): 1194.7 pg/10^5 and 1429.6 pg/10^5 and 1188.5 pg/10^5
CCL4/MIP-1 beta; test article 0.1 uM, Mean
  Concentration (CCL4/MIP-1 beta): 7029.3 pg/mL
  conc/live cell (CCL4/MIP-1 beta): 1234.5 pg/10^5
  MFI (Bead name: CCL4/MIP-1 beta): 148.0
CCL4/MIP-1 beta; [15]
  MFI (Bead name: CCL4/MIP-1 beta): 152.0 and 151.0 and 141.0
  Concentration (CCL4/MIP-1 beta): 7125.7 pg/mL and 7101.9 pg/mL and 6860.2 pg/mL
  conc/live cell (CCL4/MIP-1 beta): 1079.6 pg/10^5 and 1420.4 pg/10^5 and 1203.6 pg/10^5
CCL4/MIP-1 beta; test article 1 uM, Mean
  Concentration (CCL4/MIP-1 beta): 7165.0 pg/mL
  conc/live cell (CCL4/MIP-1 beta): 1429.9 pg/10^5
  MFI (Bead name: CCL4/MIP-1 beta): 153.7
CCL4/MIP-1 beta; [16]
  MFI (Bead name: CCL4/MIP-1 beta): 151.0 and 152.0 and 158.0
  Concentration (CCL4/MIP-1 beta): 7101.9 pg/mL and 7125.7 pg/mL and 7267.3 pg/mL
  conc/live cell (CCL4/MIP-1 beta): 1291.2 pg/10^5 and 1484.5 pg/10^5 and 1514.0 pg/10^5
CCL4/MIP-1 beta; test article 10 uM, Mean
  Concentration (CCL4/MIP-1 beta): 7321.1 pg/mL
  conc/live cell (CCL4/MIP-1 beta): 1392.8 pg/10^5
  MFI (Bead name: CCL4/MIP-1 beta): 160.3
CCL4/MIP-1 beta; [17]
  MFI (Bead name: CCL4/MIP-1 beta): 166.0 and 153.5 and 161.5
  Concentration (CCL4/MIP-1 beta): 7453.1 pg/mL and 7161.3 pg/mL and 7349.0 pg/mL
  conc/live cell (CCL4/MIP-1 beta): 1380.2 pg/10^5 and 1234.7 pg/10^5 and 1563.6 pg/10^5
CCL4/MIP-1 beta; test article 100 uM, Mean
  Concentration (CCL4/MIP-1 beta): 6290.1 pg/mL
  conc/live cell (CCL4/MIP-1 beta): 1036.8 pg/10^5
  MFI (Bead name: CCL4/MIP-1 beta): 118.5
CCL4/MIP-1 beta; [18]
  MFI (Bead name: CCL4/MIP-1 beta): 119.0 and 121.5 and 115.0
  Concentration (CCL4/MIP-1 beta): 6303.5 pg/mL and 6368.7 pg/mL and 6197.9 pg/mL
  conc/live cell (CCL4/MIP-1 beta): 1033.4 pg/10^5 and 1044.1 pg/10^5 and 1033.0 pg/10^5
